Results on six compounds are retold here after patent US12679855B2, “Inhibitors of the enzyme enolase for precision oncology” (Board of Regents, The University of Texas System, priority 2019, dated 2026).

“Also recorded” adds a separate entry of the source. Read-outs that look alike come from different tables or passages of the source.

For data set [1], the system named is D423 (ENO1-deleted) glioma cells. Put plainly: Cell proliferation assay (crystal violet) in ENO1-deleted glioma cells. The format is cell-based. The conditions noted are these: for IC50: Glioma cell; for selectivity for ENO1-deleted cells: versus ENO1-rescued (D423 ENO1) and ENO1-intact (LN319) glioma cells. The method, then:
Cell culture experiments. Cell culture experiments were conducted using the D423-MG cell line. 1p36 homozygous deletion in D423 includes the genes from CAMTAJ to SLC25A33; this includes ENO1. Isogenic ENO1 ectopically rescued lines were described previously (pCMV ENO1 5X) (Muller et al., 2012, which is incorporated by reference herein). An ENO1-intact cell line (LN319) was used as a control for sensitivity to Enolase inhibitors. Cells were routinely cultured in Dulbecco's modified Eagle's medium supplemented with 10% fetal bovine serum.
Cell proliferation assay. Cell Proliferation was determined by crystal violet staining, as previously described (Leonard et al., 2016 and Satani et al., 2016). The cell lines used were D423 (ENO1-deleted), D423 ENO1 (overexpressing ENO1) and LN319 (control). Glioma cells were seeded in 96-well plates and treated with varying concentrations of the inhibitors described above for 7 days. Cells were then washed with PBS, fixed with 10% formalin and stained with 0.05% crystal violet. Washed and dried plates were dye-extracted using 10% acetic acid, and absorbance was measured at 595 nm using Omegastar Plate Reader (BMG Labtech). To test the efficacy of the synthesized under hypoxic conditions, 1×10^4 cells were plated in 96-well plates, treated with VCY13, VCY15, VCY16, or VCY17 and incubated for 3 days in a hypoxia station (Don Whitley Scientific, Shipley, UK) set at 1% O2 and 5% CO2. Crystal violet staining was then performed as described above.
Additional Biological Data. Pro-drug inhibitor structures and corresponding IC50 values against ENO1-deleted cells are shown below in Table 2. The name and corresponding structures of all synthesized inhibitors are given in left and middle columns of each table. Pro-drug moieties in blue represent a second pro-drug leave group while those in red represent a first pro-drug leave group. Some inhibitors also contain an acetyl-protected hydroxamate, which is also a biologically labile moiety. ENO1-deleted (D423), ENO1-isogenically rescued (D423 ENO1), and ENO1-WT (LN319) cells were treated with either pro-drug inhibitor for 5 days at 21% O2, unless otherwise specified. […] IC50,D423 values at 21% O2 are given in the right columns of each table. Experiments conducted at 1% O2 (hypoxic) or 70% O2 (hyperoxic) conditions are noted, where appropriate.

The test system is the same in data set [2]. The description is as above. The format is cell-based.
In the next data set the test system is NCI-60 cell lines. Put plainly: NCI-60 screening. The data set is classed as cell-based. The conditions noted are these: NSC: D-813202. The source says: Without wishing to be bound by any particular theory, phosphoamidates may be removed across broad cell types. Whilst the IDX184 utilized benzylamine in its pro-drug structure, this drug was specifically directed at hepatocytes, and no evidence was forthcoming that it would be a pro-drug moiety applicable for glioblastoma or other cancer drug delivery. […] For example, FLM37 has been submitted to the NCI-60 screening (NSC: D-813202). All cancer cell lines were affected at concentrations of FLM37 above 10 μM, some with as little as 1 μM. […] More generally, this means that the amine as a second leaving group is applicable as a universal second leaving group for the delivery of phosphonate/phosphate containing bioactive compounds.

Data set [3] relates to xenografted tumor (D423 ENO1-homozygously deleted cell line). Put plainly: Anti-tumor efficacy in xenografted tumor model. The format is in vivo, Foxn1 nude mice. The method, then: Two HEX pro-drugs from different classes were tested for anti-tumor efficacy in xenografted tumor (D423 ENO1-homozygously deleted cell line) pre-clinical models (the standard immunodeficient Foxn1 nude mice). Tumor volumes (y-axis) were measured at the indicated dates (x-axis). Without treatment, tumors grow inexorably. […] This is notable because of the high esterase activity in mouse plasma, rodents are a sub-optimal model for pre-clinical efficacy evaluation of esterase-labile pro-drugs.

A short description of data set [4]: Human plasma stability assay (31P NMR). The format is in vitro ADME. The method, then:
VCY17 (left) and POMHEX (right) were prepared at 1.5 mM and added to human plasma in an NMR tube with 10% D2O for signal lock. […] As expected, emergence of the second peak after 1 h is due to hydrolysis of the acetyl-protected hydroxamate; the nitroimidazole moiety remains attached (mono-ester phosphonates always show ^31P-chemical shifts <20 ppm); intact phosphoramidate mixed ester was verified by ^31P-^1H HSQC showing resonance with protons at ~5 ppm (—CH2—O—P) and 4 ppm (—CH2—NH—P). Note that VCY17 and de-acetylated VCY17 can come out as doublets: this is because two chiral centers (Phosphorus and C1) yield cis/trans diasteromers.
VCY13 (FIG. 20A) and VCY31 (FIG. 20B) are thioesterase-labile phosphonoamidates. ENO1-deleted (D423, red), ENO1-isogenically rescued (D423 ENO1, blue), and ENO1-WT (LN319, grey) cells were treated with either VCY13 or VCY31 for 5 days. […] (FIG. 20B) VCY31 is a structurally similar pro-drug that uses 2-picolylamine, rather than benzylamine, as a second pro-drug leave group. […] 4 mM VCY31 was dissolved in 80% human plasma, 20% D2O and monitored by ^31P NMR (121 MHz) for 15 hours. Intact VCY31 has a ^31P NMR shift of 33 ppm. Hydrolysis of the thioester begins to occur after 2 hours, as indicated by the emergence of a peak at ~16 ppm.
Human plasma stability assay. POMHEX and VCY17 (1.5 mM) were added to human plasma (Sigma #P9523) in an NMR tube with 10% D2O for signal lock. ^31P NMR measurements (31P CPD, 1000 transients) were conducted every 30 minutes on the first day and every 24 hours, for 4 days afterwards.

The nature of data set [5]: Serum containing cell culture media stability assay. The data set is classed as in vitro ADME. As to the method: Serum containing Cell Culture Media stability assay. POMHEX and VCY17 (1 mM) were added to DMEM-containing 10% Fetal Bovine Serum cell culture media in an NMR tube with 10% D2O for signal lock) and incubated at 37° C. ^31P NMR measurements (^31P CPD, 1000 transients) were conducted every 24 hours, for 4 days.

The conditions of data set [6]: nitroimidazole in VCY17, nitrofuran in VCY15; cited from earlier work.
The format of data set [7] is in vitro ADME. The source says:
Also described herein are synthesized phosphonate pro-drugs that forgo the use of phosphoramidases or esterases to release the active pharmacophore. These moieties include the attachment of 2-(hydroxymethyl)phenol (VCY27) and 3-(hexadecyloxy)propan-1-ol (ESB7). […] Cyclosal pro-drugs have previously been described for protecting phosphate-containing antiviral nucleotides; however, it was herein discovered that its delivery efficacy can be enhanced under high O2 conditions—a previously unknown finding. Separately, the 3-(hexadecyloxy)propan-1-ol is a pro-drug that has been applied to the antiviral nucleotide Brincidofovir (CMX-001). Appending the long chain ester to HEX may facilitate the pro-drug moiety to be used for the treatment of malignant glioma.

The nature of data set [8]: pH degradation assay (31P NMR in phosphate buffered D2O). The format is physicochemical. The following applies: pH 3, 7, and 8.82, phosphate buffered D2O, NMR over 3 days. As to the method:
(§1) To assure that benzylamine-protected HEX (FLM38) was not inhibiting Enolase directly, an in vitro spectrophotometric assay was performed to examine Enolase catalytic activity through conversion of 2-phoshpoglycerate (2-PG) to phosphoenolpyruvate (PEP). Without wishing to be bound by theory, if FLM38 were to inhibit Enolase directly, a dose-dependent decrease in absorbance at 240 nm would be observed, corresponding to decreased production of PEP. […] The possibility that the benzylamine moiety could undergo non-enzymatic hydrolysis in aqueous conditions was also examined. This study was performed by measuring the pH-dependence of compound degradation in phosphate buffered D2O via NMR over 3 days.
pH degradation assay. Solutions of 50 mM phosphate buffered D2O were prepared at pH 3, 7, and 8.82. For each condition, FLM38 (5 mg, […]) was dissolved in […] of phosphate buffered D2O and placed in NMR tubes. Hydrolysis was monitored by ^31P NMR and was evidenced by the degradation of the compound peak at ~20 ppm and the emergence of the hydrolyzed product at ~18 ppm. Scans were collected every 12 h on a Bruker 500 MHz NMR.

The next data set deals with Enolase. Put plainly: Enolase enzymatic activity assay (spectrophotometric, 2-PG to PEP, 240 nm). The following applies: serial dilutions beginning at 100 μM, native lysates. The data set is classed as biochemical, human. The method, then: as §1
Enolase enzymatic activity assay. The enzyme activity assay was performed according to a previously described procedure (Muller et al., 2012, which is incorporated by reference herein). […]
In the first, the lysates were treated with the serial dilutions of FLM38 (starting at 100 μM) and the reaction initiated by adding 2.5 mM 2-PG and optical density (OD) was measured at 240 nm using Omegastar Plate reader (BMG Labtech) over the course of 3 h.
In the second experiment, the lysates were pre-incubated in 96-well plates with serial dilutions of FLM38 (starting at 100 µM) at 37° C. for 20 h. The reaction was initiated by adding 2.5 mM 2-PG and OD was measured at 240 nm. […]

Setting [9] is: 120 h, 21% O2, 5 days where stated, read-out: IC50 against D423 (ENO1-deleted) cells.
Setting [10] is: 120 h, ENO1-deleted (D423) cells, 5 days, 21% O2, read-out: IC50,D423.
Where [11] appears, read: 4 mM in 80% human plasma, 20% D2O, 31P NMR.

By IC50 is commonly meant the concentration needed to halve the response being measured. As for `CC(C)(C)C(=O)OCOP(=O)(NCc1ccccc1)C1CCCN(O)C1=O` (stereo not shown) [FLM37], the IC50 in data set [1] (setting [9]) was found to be 244 nM; in data set [1] (setting [10]) it was 150 nM; in data set [2] (Glioma cell, 144 h, 6 days, starting concentration 1 μM, crystal violet (FIG. 7), read-out: IC50 towards D423 cells), 63 nM. The “selectivity for ENO1-deleted cells” value in data set [1] is reported as “selective killing towards D423 cells; also recorded: selective for ENO1-deleted cells”. Also, the “concentration at which some cancer cell lines were affected” value in the data set on NCI-60 cell lines was at least 1 µM. The “concentrations at which all cancer cell lines were affected” value with NCI-60 cell lines is given as “above 10 μM”.

For the compound `CC(=O)ON1CCCC(P(=O)(NCc2ccccn2)OCCSC(=O)C(C)(C)C)C1=O` (stereo not shown) [VCY31, 2-oxo-3-((2-(pivaloylthio)ethoxy)((pyridin-2-ylmethyl)amino)phosphoryl) piperidin-1-yl acetate], the half-maximal inhibitory concentration (IC50) in data set [1] (setting [9]) and in data set [1] (setting [10]) was 59 nM in each case. Besides, the “selectivity for ENO1-deleted cells” value in data set [1] is on record as “dose-dependent selectivity for ENO1-deleted cells”. The tumor volume response result in data set [3] (90 mg/kg/day IP) is “suppressed tumor growth”. Also, the “hydrolysis of the thioester begins to occur after” value in data set [4] (setting [11]) is 2 h. In addition, in [4] (setting [11]), the “time without full hydrolysis” value is over 15 h.

`CC(=O)ON1CCCC(P(=O)(NCc2ccccc2)OCc2cnc([N+](=O)[O-])n2C)C1=O` (stereo not shown) [VCY17, 3-((benzylamino)((1-methyl-2-nitro-1H-imidazol-5-yl)methoxy)phosphoryl)-2-oxopiperidin-1-yl acetate]: the 50% inhibitory concentration (IC50) in data set [1] (setting [10]) is 12700 nM; in data set [1] (D423 cells, 1% O2 (hypoxic), read-out: IC50,D423 at 1% O2), 975 nM. The “difference in bioactivation from 21% to 1% O2” value in data set [1] (taking into account HIF-1α/hypoxia-driven increase in ENO2 expression) is on record as at most 50 fold. In addition, the “stable in ex-vivo human plasma for” value in data set [4] is on record as “more than 48 hours”. The “stability in ex-vivo human plasma over the course of” value in data set [4] (1.5 mM, human plasma with 10% D2O, 31P NMR) was at least 24 h. Besides, in data set [5], the “stable in serum-containing culture media” value is reported as “more than 48 hours”. Moreover, the “potency increase under 1% O2” value in data set [2] (4 days, 1% O2 versus 21% O2, ENO1-deleted glioma cells) was “greater than 15 fold”. The “redox potential of the nitroheterocycle” value in data set [6] is reported as −390 mV.

With `CCCCCCCCCCCCCCCCOCCCOP(=O)(O)C1CCCN(O)C1=O` (stereo not shown) [ESB7, 3-(hexadecyloxy)propyl hydrogen (1-hydroxy-2-oxopiperidin-3-yl)phosphonate], the concentration for half-maximal inhibition (IC50) in [1] (setting [10]) stood at 202 nM. Moreover, the “selectivity for ENO1-deleted cells” value in data set [1] is recorded as “selective killing against ENO1-deleted cells”. Moreover, the “stability under various pH conditions and in biological fluids” value in data set [7] is “robust stability”.

In the case of `O=C1C(P(=O)(O)NCc2ccccc2)CCCN1O` (stereo not shown) [FLM38, N-benzyl-P-(1-hydroxy-2-oxopiperidin-3-yl)phosphonamidic acid], in data set [8], the “stability to non-enzymatic hydrolysis” value is listed as “remained intact”. Further, the “direct inhibition of Enolase (dose-dependent decrease in absorbance at 240 nm)” value with Enolase is reported as “does not inhibit Enolase directly”.

For the compound `O=C1C([P@]2(=O)OCc3ccccc3O2)CCCN1O` (stereo partly drawn) [VCY27, 1-hydroxy-3-((S)-2-oxido-4H-benzo[d][1,3,2]dioxaphosphinin-2-yl)piperidin-2-one], the IC50 in data set [1] (setting [9]) is about 500 nM; in data set [1] (setting [10]), 500 nM; in [1] (D423 cells, 70% O2 (hyperoxic), read-out: IC50,D423 at 70% O2) it was 15 nM. Moreover, the “selectivity for ENO1-deleted cells” value in data set [1] is “selective killing against ENO1-deleted cells”. Moreover, the tumor volume response result in data set [3] (1 IP and 1 SC injection, at 35 mg/kg/day each) is “immediate abrogation of tumor growth and eventual tumor regression”. In addition, the “stability under various pH conditions and in biological fluids” value in [7] is on record as “robust stability”.
